Measurements taken from PubChem BioAssay (NCI).
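Briefly, cells in 96-well plates were exposed to five compound concentrations for 48 h, and endpoints were estimated by linear interpolation. The concentration for 50% growth inhibition is given as GI50. At the TGI there is no net growth.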

Assays:
Experiment in all cases: DTP human tumour cell line panel, 48 h
[1] = test system: CCRF-CEM leukemia
[2] = test system: EKVX NSCLC
[3] = test system: A549 NSCLC
[4] = test system: HCC-2998 colon
[5] = test system: COLO 205 colon
[6] = test system: HCT-116 colon
[7] = test system: NCI-H226 lung
[8] = test system: OVCAR-5 ovarian
[9] = test system: T-47D breast
[10] = test system: SF-539 CNS
[11] = test system: RPMI-8226 leukemia
[12] = test system: SK-OV-3 ovarian
[13] = test system: SK-MEL-5 melanoma
[14] = test system: KM12 colon
[15] = test system: UACC-62 melanoma
[16] = test system: BT-549 breast
[17] = test system: 786-0 renal
[18] = test system: OVCAR-4 ovarian
[19] = test system: HT29 colon
[20] = test system: M14 melanoma
[21] = test system: OVCAR-8 ovarian
[22] = test system: SF-295 CNS
[23] = test system: HOP-92 NSCLC
[24] = test system: NCI-H23 lung
[25] = test system: NCI/ADR-RES ovarian
[26] = test system: SNB-19 CNS
[27] = test system: NCI-H522 lung
[28] = test system: HCT-15 colon
[29] = test system: SK-MEL-2 melanoma
[30] = test system: SR leukemia
[31] = test system: UO-31 renal
[32] = test system: TK-10 renal
[33] = test system: MOLT-4 leukemia
[34] = test system: HOP-62 NSCLC
[35] = test system: OVCAR-3 ovarian
[36] = test system: DU-145 prostate
[37] = test system: IGROV1 ovarian
[38] = test system: MALME-3M melanoma
[39] = test system: A498 renal
[40] = test system: SN12C renal
[41] = test system: NCI-H460 lung
[42] = test system: K-562 leukemia
[43] = test system: PC-3 prostate
[44] = test system: RXF 393 renal
[45] = test system: U251 CNS
[46] = test system: MDA-MB-468 breast
[47] = test system: SNB-75 CNS
[48] = test system: MDA-MB-435
[49] = test system: ACHN renal
[50] = test system: CAKI-1 renal
[51] = test system: HL-60(TB) leukemia
[52] = test system: SK-MEL-28 melanoma
[53] = test system: MCF7 breast
[54] = test system: UACC-257 melanoma
[55] = test system: SF-268 CNS
[56] = test system: HS 578T breast
[57] = test system: LOX IMVI melanoma
[58] = test system: SW-620 colon
[59] = test system: MDA-MB-231 breast

Cn1cc(-c2cc3nc(-c4cn(C)c5ncc(Br)cc45)cc(N)n3n2)c2ccccc21
GI50 [1]: 3.52 µM
TGI [1]: > 100 µM
GI50 [2]: 10.1 µM
TGI [2]: 27.1 µM
GI50 [3]: 9.25 µM
TGI [3]: > 100 µM
GI50 [4]: 3.74 µM
TGI [4]: 13.9 µM
GI50 [5]: 16.8 µM
TGI [5]: 33.8 µM
GI50 [6]: 7.98 µM
TGI [6]: 27.6 µM
GI50 [7]: 15.1 µM
TGI [7]: 62.7 µM
GI50 [8]: 14.5 µM
TGI [8]: 35.1 µM
GI50 [9]: 7.38 µM
TGI [9]: 30.4 µM
GI50 [10]: 14.1 µM
TGI [10]: 28.7 µM
GI50 [11]: 13.6 µM
TGI [11]: > 100 µM
GI50 [12]: 20.4 µM
TGI [12]: 59.6 µM
GI50 [13]: 15.1 µM
TGI [13]: 28.4 µM
GI50 [14]: 6.04 µM
TGI [14]: 26.7 µM
GI50 [15]: 11.5 µM
TGI [15]: 24.8 µM
GI50 [16]: 19.5 µM
TGI [16]: 47.8 µM
GI50 [17]: 13.4 µM
TGI [17]: 33.3 µM
GI50 [18]: 17.1 µM
TGI [18]: 59.7 µM
GI50 [19]: 5.65 µM
TGI [19]: 20.4 µM
GI50 [20]: 15.3 µM
TGI [20]: 38.1 µM
GI50 [21]: 21.8 µM
TGI [21]: 85.9 µM
GI50 [22]: 13.5 µM
TGI [22]: 31.1 µM
GI50 [23]: 4.97 µM
TGI [23]: 25.1 µM
GI50 [24]: 15.7 µM
TGI [24]: 41.3 µM
GI50 [25]: 17.4 µM
TGI [25]: 76.1 µM
GI50 [26]: 17.8 µM
TGI [26]: 41.9 µM
GI50 [27]: 12.8 µM
TGI [27]: 32.7 µM
GI50 [28]: 2.53 µM
TGI [28]: 6.94 µM
GI50 [29]: 11.2 µM
TGI [29]: 26.7 µM
GI50 [30]: 2.46 µM
TGI [30]: > 100 µM
GI50 [31]: 13.1 µM
TGI [31]: 45.8 µM
GI50 [32]: 13.8 µM
TGI [32]: 44.9 µM
GI50 [33]: 3.52 µM
TGI [33]: 30.9 µM
GI50 [34]: 14.8 µM
TGI [34]: 46.5 µM
GI50 [35]: 13.5 µM
TGI [35]: 28.5 µM
GI50 [36]: 21.4 µM
TGI [36]: > 100 µM
GI50 [37]: 11.7 µM
TGI [37]: 32.6 µM
GI50 [38]: 16.8 µM
TGI [38]: 32.7 µM
GI50 [39]: 8.84 µM
TGI [39]: 23.7 µM
GI50 [40]: 12.8 µM
TGI [40]: 27.9 µM
GI50 [41]: 7.78 µM
TGI [41]: 28.1 µM
GI50 [42]: 2.94 µM
TGI [42]: > 100 µM
GI50 [43]: 6.58 µM
TGI [43]: > 100 µM
GI50 [44]: 6.13 µM
TGI [44]: 19.3 µM
GI50 [45]: 5.65 µM
TGI [45]: 27.4 µM
GI50 [46]: 3.71 µM
TGI [46]: 15.6 µM
GI50 [47]: 11.9 µM
TGI [47]: 58.2 µM
GI50 [48]: 16.4 µM
TGI [48]: 34.1 µM
GI50 [49]: 13.5 µM
TGI [49]: 45.6 µM
GI50 [50]: 12.7 µM
TGI [50]: 48.1 µM
GI50 [51]: 3.53 µM
TGI [51]: 32.6 µM
GI50 [52]: 15.2 µM
TGI [52]: 29.1 µM
GI50 [53]: 5.31 µM
TGI [53]: 27.3 µM
GI50 [54]: 14 µM
TGI [54]: 30.4 µM
GI50 [55]: 13.1 µM
TGI [55]: 89.6 µM

CN1CCN(Cc2ccc(C(=O)Nc3cccc(Nc4ccc5c(O)cccc5n4)c3)cc2C(F)(F)F)CC1
GI50 [1]: 2.91 µM
TGI [1]: > 100 µM
GI50 [2]: 3.75 µM
TGI [2]: 14.1 µM
GI50 [3]: 4.5 µM
TGI [3]: 20 µM
GI50 [56]: 2.96 µM
TGI [56]: 21.8 µM
GI50 [4]: 1.89 µM
TGI [4]: 3.36 µM
GI50 [5]: 1.99 µM
TGI [5]: 3.94 µM
GI50 [6]: 2.7 µM
TGI [6]: > 100 µM
GI50 [7]: 19.2 µM
TGI [7]: 41.7 µM
GI50 [8]: 3.24 µM
TGI [8]: 14.4 µM
GI50 [9]: 10.7 µM
TGI [9]: 26.4 µM
GI50 [10]: 1.67 µM
TGI [10]: 3.08 µM
GI50 [12]: 14.4 µM
TGI [12]: 29.2 µM
GI50 [13]: 1.68 µM
TGI [13]: 3.07 µM
GI50 [57]: 1.65 µM
TGI [57]: 3.01 µM
GI50 [14]: 2.3 µM
TGI [14]: 5.23 µM
GI50 [15]: 1.73 µM
TGI [15]: 3.49 µM
GI50 [16]: 15.6 µM
TGI [16]: 30.2 µM
GI50 [17]: 2.11 µM
TGI [17]: 4.28 µM
GI50 [18]: 7.39 µM
TGI [18]: 21 µM
GI50 [19]: 2.06 µM
TGI [19]: 4.41 µM
GI50 [20]: 2.21 µM
TGI [20]: 5.67 µM
GI50 [21]: 3.56 µM
TGI [21]: 14 µM
GI50 [22]: 1.65 µM
TGI [22]: 3.16 µM
GI50 [23]: 1.32 µM
TGI [23]: 5.8 µM
GI50 [24]: 2.26 µM
TGI [24]: 4.79 µM
GI50 [25]: 3.45 µM
TGI [25]: 12 µM
GI50 [26]: 2.39 µM
TGI [26]: 5.15 µM
GI50 [27]: 1.93 µM
TGI [27]: 3.97 µM
GI50 [28]: 1.82 µM
TGI [28]: 3.54 µM
GI50 [29]: 1.92 µM
TGI [29]: 3.68 µM
GI50 [58]: 2.24 µM
TGI [58]: 4.18 µM
GI50 [30]: 4.39 µM
TGI [30]: > 100 µM
GI50 [31]: 1.99 µM
TGI [31]: 4.29 µM
GI50 [32]: 3.36 µM
TGI [32]: 13.1 µM
GI50 [33]: 1.86 µM
TGI [33]: 5.29 µM
GI50 [34]: 3 µM
TGI [34]: 8.85 µM
GI50 [59]: 1.62 µM
TGI [59]: 3.75 µM
GI50 [35]: 3.1 µM
TGI [35]: 8 µM
GI50 [36]: 4.68 µM
TGI [36]: 17.7 µM
GI50 [37]: 4.7 µM
TGI [37]: 17 µM
GI50 [38]: 1.67 µM
TGI [38]: 3.12 µM
GI50 [39]: 17.5 µM
TGI [39]: 33.3 µM
GI50 [40]: 2.34 µM
TGI [40]: 6.03 µM
GI50 [42]: 2.42 µM
TGI [42]: 24.5 µM
GI50 [43]: 2.53 µM
TGI [43]: 14.6 µM
GI50 [44]: 1.66 µM
TGI [44]: 3.58 µM
GI50 [45]: 2.38 µM
TGI [45]: 5.2 µM
GI50 [46]: 1.62 µM
TGI [46]: 3.16 µM
GI50 [47]: 1.85 µM
TGI [47]: 13.7 µM
GI50 [48]: 1.78 µM
TGI [48]: 3.78 µM
GI50 [49]: 2.07 µM
TGI [49]: 4.92 µM
GI50 [50]: 2.13 µM
TGI [50]: 5.17 µM
GI50 [51]: 2.47 µM
TGI [51]: 5.67 µM
GI50 [52]: 1.77 µM
TGI [52]: 3.21 µM
GI50 [53]: 1.74 µM
TGI [53]: 3.41 µM
GI50 [54]: 1.92 µM
TGI [54]: 3.86 µM
GI50 [55]: 3.81 µM
TGI [55]: 19 µM
